In patent US20060069132A1, “Azolecarboxamide herbicides” (priority 2004, published 2006):

What was measured:
[1] = tested on: barnyardgrass; assay: Test A pre-/postemergence herbicide test; assay type: in vivo, Echinochloa crus-galli
How it was run: (§1)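 Pre: seeded sandy loam, directed soil spray, compound in non-phytotoxic solvent + surfactant. Post: 1–2-leaf plants (2–10 cm), sprayed to runoff. Greenhouse ~10 d; visual injury vs untreated, 0–100 scale.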

[2] = tested on: large crabgrass; assay: Test A pre-/postemergence herbicide test; assay type: in vivo, Digitaria sanguinalis
How it was run: as §1

[3] = tested on: giant foxtail; assay: Test A pre-/postemergence herbicide test; assay type: in vivo, Setaria faberi
How it was run: as §1

[4] = tested on: morningglory; assay: Test A pre-/postemergence herbicide test; assay type: in vivo, Ipomoea spp.
How it was run: as §1

[5] = tested on: redroot pigweed; assay: Test A pre-/postemergence herbicide test; assay type: in vivo, Amaranthus retroflexus
How it was run: as §1

[6] = tested on: velvetleaf; assay: Test A pre-/postemergence herbicide test; assay type: in vivo, Abutilon theophrasti
How it was run: as §1

[7] = tested on: barnyardgrass; assay: Test B pre-/postemergence herbicide test; assay type: in vivo, Echinochloa crus-galli; conditions: for Plant response rating, Barnyardgrass: preemergence; for Barnyardgrass plant response rating: postemergence, visual rating, scale 0 (no effect) to 100 (complete control)
How it was run: (§2)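 Evaluation is visual, comparing treated with control plants on a scale where 0 means no effect and 100 means full control. Treatments were preemergence, or postemergence on seedlings 2–18 cm tall, and held 13–15 days in the greenhouse.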

[8] = tested on: Surinam grass; assay: Test B pre-/postemergence herbicide test; assay type: in vivo, Urochloa decumbens; conditions: for Plant response rating, Surinam Grass: preemergence; for Surinam Grass plant response rating: postemergence, visual rating, scale 0 (no effect) to 100 (complete control)
How it was run: (§3)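 Test chemicals in a non-phytotoxic solvent mixture with surfactant were applied preemergence to seeded species and postemergence to plants 2-18 cm tall (1- to 4-leaf stage); rice and barnyardgrass were also tested in a flooded paddy at the 2-leaf stage. Visual rating versus controls after 13-15 days in greenhouse, scale 0 (no effect) to 100 (complete control).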

[9] = tested on: cocklebur; assay: Test B pre-/postemergence herbicide test; assay type: in vivo, Xanthium strumarium; conditions: for Plant response rating, Cocklebur: preemergence; for Cocklebur plant response rating: postemergence, visual rating, scale 0 (no effect) to 100 (complete control)
How it was run: as §2

[10] = tested on: corn; assay: Test B pre-/postemergence herbicide test; assay type: in vivo, Zea mays; conditions: preemergence
How it was run: as §3

[11] = tested on: large crabgrass; assay: Test B pre-/postemergence herbicide test; assay type: in vivo, Digitaria sanguinalis; conditions: for Plant response rating, Crabgrass, Large: preemergence; for Crabgrass, Large plant response rating: postemergence, visual rating, scale 0 (no effect) to 100 (complete control)
How it was run: as §3

[12] = tested on: giant foxtail; assay: Test B pre-/postemergence herbicide test; assay type: in vivo, Setaria faberi; conditions: for Plant response rating, Foxtail, Giant: preemergence; for Foxtail, Giant plant response rating: postemergence, visual rating, scale 0 (no effect) to 100 (complete control)
How it was run: as §3

[13] = tested on: lambsquarters; assay: Test B pre-/postemergence herbicide test; assay type: in vivo, Chenopodium album; conditions: for Plant response rating, Lambsquarters: preemergence; for Lambsquarters plant response rating: postemergence, visual rating, scale 0 (no effect) to 100 (complete control)
How it was run: as §3

[14] = tested on: morningglory; assay: Test B pre-/postemergence herbicide test; assay type: in vivo, Ipomoea coccinea; conditions: preemergence, 125 g ai/ha; 0 to 100 scale, 0 is no effect, 100 is complete control
How it was run: as §2

[15] = tested on: pigweed; assay: Test B pre-/postemergence herbicide test; assay type: in vivo, Amaranthus retroflexus; conditions: for Plant response rating, Pigweed: preemergence; for Pigweed plant response rating: postemergence, visual rating, scale 0 (no effect) to 100 (complete control)
How it was run: as §3

[16] = tested on: rice; assay: Test B pre-/postemergence herbicide test; assay type: in vivo, Oryza sativa; conditions: preemergence, 125 g ai/ha; 0 to 100 scale, 0 is no effect, 100 is complete control
How it was run: as §3

[17] = tested on: velvetleaf; assay: Test B pre-/postemergence herbicide test; assay type: in vivo, Abutilon theophrasti; conditions: for Plant response rating, Velvetleaf: preemergence; for Velvetleaf plant response rating: postemergence, visual rating, scale 0 (no effect) to 100 (complete control)
How it was run: as §3

[18] = tested on: blackgrass; assay: Test B postemergence herbicide test; assay type: in vivo, Alopecurus myosuroides; conditions: postemergence, visual rating, scale 0 (no effect) to 100 (complete control)
How it was run: (§4)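 Each value is a visual 0–100 response rating taken against controls 13 to 15 days after treatment in the greenhouse. Plants received formulated chemical postemergence at the 1- to 4-leaf stage or, in flooded paddy, at the 2-leaf stage.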

[19] = tested on: wheat; assay: Test B postemergence herbicide test; assay type: in vivo, Triticum aestivum; set-up: key to Wheat plant response rating: 0 = no effect, 100 = complete control; conditions: postemergence, visual rating, scale 0 (no effect) to 100 (complete control)
How it was run: as §4

[20] = tested on: wild oat; assay: Test B postemergence herbicide test; assay type: in vivo, Avena fatua; conditions: postemergence, visual rating, scale 0 (no effect) to 100 (complete control)
How it was run: as §4

[21] = tested on: rice; assay: Test B flooded paddy test; assay type: in vivo, Oryza sativa; conditions: 1000 g ai/ha, visual rating, scale 0 to 100 (0 no effect, 100 complete control), 13 to 15 days
How it was run: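 Paddy species grown to the 2-leaf stage under flooding; blackgrass sprayed postemergence at 2–18 cm (1- to 4-leaf stage). Plants kept in a greenhouse for 13 to 15 days, then visually rated against controls on 0 (no effect) to 100 (complete control).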

[22] = tested on: small flower umbrella sedge; assay: Test B flooded paddy test; assay type: in vivo, Cyperus difformis; conditions: 1000 g ai/ha, visual rating, scale 0 to 100 (0 no effect, 100 complete control), 13 to 15 days
How it was run: as §4

[23] = tested on: ducksalad; assay: Test B flooded paddy test; assay type: in vivo, Heteranthera limosa; conditions: 1000 g ai/ha, visual rating, scale 0 to 100 (0 no effect, 100 complete control), 13 to 15 days
How it was run: as §4

[24] = tested on: barnyardgrass; assay: Test B flooded paddy test; assay type: in vivo, Echinochloa crus-galli; conditions: 1000 g ai/ha, visual rating, scale 0 to 100 (0 no effect, 100 complete control), 13 to 15 days
How it was run: as §4

[25] = Postemergence, 500 g ai/ha, 0 to 100 scale, 0 no effect, 100 complete control
[26] = Postemergence, 2000 g ai/ha, 0 to 100 scale, 0 no effect, 100 complete control
[27] = Preemergence, 500 g ai/ha, visual rating, 0 to 100 scale (0 no effect, 100 complete control)
[28] = Preemergence, 2000 g ai/ha, visual rating, 0 to 100 scale (0 no effect, 100 complete control)
[29] = preemergence, 500 g ai/ha, visual injury, 0 to 100 scale (0 no effect, 100 complete control)
[30] = 500 g ai/ha, visual rating 0-100, 0 no effect, 100 complete control
[31] = 125 g ai/ha, 0 to 100 scale, 0 is no effect, 100 is complete control

CCC(C)c1cc(C(=O)Nc2cccc(C(C)=NO)c2)n(C)n1 (stereo not shown) [Compound 120]
75: Crabgrass, Large plant response rating [2, 28]
85: Barnyardgrass plant response rating [1, 28] | Plant response rating, Pigweed [5, 26]
90: Plant response rating, Barnyardgrass [7, 30] | Plant response rating, Crabgrass, Large [11, 30]
25: Foxtail, Giant plant response rating [3, 27] | Velvetleaf plant response rating [6, 25]
70: Plant response rating, Crabgrass, Large [11, 31] | Plant response rating, Foxtail, Giant [12, 30] | Pigweed plant response rating ([15]; 500 g ai/ha) | Ducksalad plant response rating [23]
10: Barnyardgrass plant response rating ([7]; 125 g ai/ha) | Barnyardgrass plant response rating ([7]; 500 g ai/ha) | Crabgrass, Large plant response rating ([11]; 125 g ai/ha) | Foxtail, Giant plant response rating ([12]; 125 g ai/ha) | Foxtail, Giant plant response rating ([12]; 500 g ai/ha) | Plant response rating, Morningglory [14] | Pigweed plant response rating ([15]; 125 g ai/ha) | Velvetleaf plant response rating ([17]; 125 g ai/ha) | Blackgrass plant response rating ([18]; 500 g ai/ha) | Wheat plant response rating ([19]; 125 g ai/ha) | Wheat plant response rating ([19]; 500 g ai/ha) | Oat, Wild plant response rating ([20]; 125 g ai/ha) | Oat, Wild plant response rating ([20]; 500 g ai/ha) | Sedge, Umbrella plant response rating [22]
60: Cocklebur plant response rating ([9]; 500 g ai/ha)
50: Crabgrass, Large plant response rating [2, 25] | Pigweed plant response rating [5, 25] | Pigweed plant response rating [5, 28] | Surinam Grass plant response rating ([8]; 500 g ai/ha) | Lambsquarters plant response rating ([13]; 500 g ai/ha)
0: Plant response rating, Barnyardgrass [7, 31] | Plant response rating, Surinam Grass [8, 30] | Plant response rating, Surinam Grass [8, 31] | Plant response rating, Cocklebur [9, 30] | Plant response rating, Cocklebur [9, 31] | Plant response rating, Corn [10, 30] | Plant response rating, Corn [10, 31] | Plant response rating, Foxtail, Giant [12, 31] | Lambsquarters plant response rating ([13]; 125 g ai/ha) | Plant response rating, Lambsquarters [13, 31] | Plant response rating, Pigweed [15, 31] | Plant response rating, Rice [16] | Blackgrass plant response rating ([18]; 125 g ai/ha) | Rice plant response rating [21]
30: Barnyardgrass plant response rating [1, 27] | Plant response rating, Velvetleaf [6, 26] | Cocklebur plant response rating ([9]; 125 g ai/ha) | Plant response rating, Pigweed [15, 30] | Velvetleaf plant response rating ([17]; 500 g ai/ha) | Barnyardgrass plant response rating [24]
45: Barnyardgrass plant response rating [1, 25] | Crabgrass, Large plant response rating [2, 27]
55: Foxtail, Giant plant response rating [3, 28] | Morningglory plant response rating [4, 28]
20: Foxtail, Giant plant response rating [3, 25] | Plant response rating, Foxtail, Giant [3, 26] | Morningglory plant response rating [4, 25] | Morningglory plant response rating [4, 27] | Pigweed plant response rating [5, 29] | Velvetleaf plant response rating [6, 29] | Surinam Grass plant response rating ([8]; 125 g ai/ha) | Crabgrass, Large plant response rating ([11]; 500 g ai/ha) | Plant response rating, Lambsquarters [13, 30] | Plant response rating, Velvetleaf [17, 31]
65: Plant response rating, Barnyardgrass [1, 26] | Plant response rating, Crabgrass, Large [2, 26]
40: Plant response rating, Morningglory [4, 26] | Velvetleaf plant response rating [6, 28] | Plant response rating, Velvetleaf [17, 30]
